Patent publication US20250195660A1, “INACTIVATING BACTERIA WITH ELECTRIC PULSES AND ANTIBIOTICS” (Purdue Research Foundation, priority 2018, published 2025)

How the values were obtained:
[1] = tested on: Klebsiella pneumoniae (ATCC BAA-2146 NDM-I positive); assay: Inactivation of K. pneumoniae by 300 ns electric pulses and/or antibiotics (CFU plating); format: cell-based
Source text: (§1) Except for rifampicin, the five other antibiotics in these examples primarily target gram-positive bacteria and are largely ineffective or not used against gram-negative bacteria in a clinical setting.
(§2) A Blumlein pulsed generator consisting of two lines comprised of twelve 2000 pF capacitors connected by inductors produced 300 ns EPs with rise-times of 30 ns and fall-times of 35 ns at a repetition frequency of 1 Hz (12). The EPs were applied to a standard 2 mm gap electroporation cuvette (Dot Scientific R) filled with a solution containing the microorganisms. Used was a Luria broth of 0.5% salinity (5 grams of NaCl/Liter) for the solution to electrically match the resistance of the sample with the impedance of the pulse generator (11Ω) to prevent signal reflection. The voltage measurements were taken using a LeCroy PPE 20 kV high voltage probe with a 1000:1 attenuation recorded by a TeleDyne LeCroy® Waverunner 6 Zi Oscilloscope with a bandwidth of 4 GHZ.
(§3) The gram-negative strains included a carbapenem-resistant Escherichia coli (ATCC® BA-2452TM, New Delhi metallo-beta-lactamase NDM-1 positive.), Klebsiella pneumoniae (ATCC® BAA-2146TM NDM-I positive), and a gentamicin, streptomycin and sulfonamide resistant Pseudomonas aeruginosa (BEI Resources NR-31040). Assessed was the gram-positive strain of methicillin resistant Staphylococcus aureus (USA300-0114 strain), which is also resistant to erythromycin and tetracycline. Samples were cultured in Luria broth (LB Broth Lennox, powder microbial growth medium, SIGMA-ALDRICH®) by taking 25 mL of broth in a 50 mL sterile conical tube and incubating in a shaker for 16 h at 37° C. Samples were diluted 50% by adding 25 mL media to the incubated sample as we plated controls for each experiment and condition.
(§4) Samples were treated in 2 mm gap cuvettes containing 365 μL of sample between the electrodes, with bio-grade mineral oil added on top of the electrode plates to prevent arcing.
(§5) To establish a common baseline for comparing different NSEP parameters, we fixed the energy density U delivered to the cuvettes according to Formula (1) (above). For 300 ns EPs, 500 EPs at 20 kV/cm and 222 EPs at 30 kV/cm delivered the same energy to the sample.
(§6) Tissue culture Petri dishes from VWR R (15 cm diameter, 10 mm height) were utilized for plating. Each plate was covered with 15 mL of Luria broth (Agar, microbiology tested powder, SIGMA-ALDRICH®), which was prepared by adding 20 g of LB Lennox (SIGMA-ALDRICH) and 15 g/L of agar to water prior to being autoclaved. The salinity of the agar was the same as the LB (0.5% NaCl) to minimize additional environmental stressors on the bacteria.
(§7) Removed was 20 μL from each cuvette and added to 180 μL of PBS in a 96-well dish in triplicate. Each well was then diluted by a ratio of 10:1 five additional times by taking 20 μL of the diluted sample into subsequent wells using multi-channel pipettes (using fresh tips for each dilution). Plated were the six dilutions of each sample two times each by adding 4 μL from each well onto the Petri dish using a multi-channel pipette, which allowed the plating of all three replicates on the same plate to achieve n=6. These plates were then cultured overnight in an incubator at 37° C., and counted the next day.

[2] = tested on: gentamicin, streptomycin and sulfonamide resistant Pseudomonas aeruginosa (BEI Resources NR-31040); assay: Inactivation of P. aeruginosa by 300 ns electric pulses and/or antibiotics (CFU plating); format: cell-based; settings: 20 kV/cm EPs + 20 μg/mL
Source text: as §1, §2, §3, §4, §5, §6, §7

[3] = tested on: Stapphylococcus aureus (gram positive bacterium number 25923); assay: Inactivation of S. aureus by 300 ns electric pulses combined with antibiotic (CFU plating); format: cell-based, Staphylococcus aureus; settings: 30 kV/cm treatment + 20 μg/ml dose, in 10 min

## CO[C@H]1/C=C/O[C@@]2(C)Oc3c(C)c(O)c4c(O)c(c(/C=N/N5CCN(C)CC5)c(O)c4c3C2=O)NC(=O)/C(C)=C\C=C\[C@H](C)[C@H](O)[C@@H](C)[C@@H](O)[C@@H](C)[C@H](OC(C)=O)[C@@H]1C [rifampicin]
[1]; 30 kV/cm NSEPs + 2 μg/mL
  additional inactivation compared to NSEPs alone, K. pneumoniae: 1 log
  log reduction of K. pneumoniae: 5 log
[1]; 30 kV/cm NSEPs + 20 μg/mL
  additional inactivation compared to NSEPs alone, K. pneumoniae: 1 log
[2]
  synergy (FIG. 11B legend): approximately 2 log
[3]
  additional log-reduction of S. aureus: 1.5 log
